Experimental data from patent US20100216827A1 (Metabolex, Inc., priority 2008, published 2010).
Where two headings read alike, the source gives them in different places.

Molecular target: T1, human GPR120 (Homo sapiens, UniProt Q5NUL3)
T1 construct: host or cells: HEK293 cells coexpressing Gqi5
T1 sequence (Q5NUL3 1-361): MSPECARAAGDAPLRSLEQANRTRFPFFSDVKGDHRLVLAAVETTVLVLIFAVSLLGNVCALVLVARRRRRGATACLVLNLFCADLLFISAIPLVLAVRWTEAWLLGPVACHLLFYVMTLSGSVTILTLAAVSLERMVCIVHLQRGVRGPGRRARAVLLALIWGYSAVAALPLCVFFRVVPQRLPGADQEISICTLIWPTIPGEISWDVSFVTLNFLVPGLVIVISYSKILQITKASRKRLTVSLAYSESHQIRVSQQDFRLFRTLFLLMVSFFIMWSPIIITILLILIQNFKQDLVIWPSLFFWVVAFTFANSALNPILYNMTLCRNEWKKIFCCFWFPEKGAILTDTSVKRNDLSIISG
Assay: Intracellular Ca2+ (FLIPR Calcium 4, Flexstation) assay in human GPR120 stable HEK293 cell line coexpressing Gqi5
Type: cell-based
Conditions: for % Activity at 5 μM: 5 μM compound compared to the maximal activity of GW9508 at 6.7 μM (100%); for EC50: human GPR120 stably expressing cells, 8 concentrations 0.00001 to 20 μM
Method in brief: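 Calcium 4 dye-loaded HEK293 cells expressing N-terminally Flag-tagged human GPR120 with Gqi5 (HBSS/20 mM HEPES, pH 7.4; 50 min, 37 °C). Fluorescence (485/525 nm) read for 90 s after addition of compound at 8 concentrations, 0.00001–20 μM; EC50 from Max−Min change. % activity at 5 μM versus maximal GW9508 response (6.7 μM).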

[1] = read-out: EC50 between >1 μM and ≦10 μM

% Activity at 5 μM	EC50 [1]	EC50 (read-out: EC50 ≦ 1 μM)	EC50 (read-out: EC50 > 10 μM)	SMILES
83%	1 to 10 µM	–	–	COc1cc(CC(C)C(=O)O)ccc1OCc1cc(C)nn1-c1ccc(Cl)cc1 (centres unmarked) [Example 112, 3-(4-((1-(4-Chlorophenyl)-3-methyl-1H-pyrazol-5-yl)methoxy)-3-methoxyphenyl)-2-methylpropanoic acid]
112%	–	≤ 1 µM	–	Cc1cc(COc2c(F)cc(CCCC(=O)O)cc2F)n(-c2ccc(Cl)cc2)n1 [Example 128, 4-(4-((1-(4-chlorophenyl)-3-methyl-1H-pyrazol-5-yl)methoxy)-3,5-difluorophenyl)butanoic acid]
100%	1 to 10 µM	–	–	Cc1cc(COc2c(F)cc(CC(C)(C)C(=O)O)cc2F)n(-c2ccc(Cl)cc2)n1 [Example 38, 3-(4-((1-(4-chlorophenyl)-3-methyl-1H-pyrazol-5-yl)methoxy)-3,5-difluorophenyl)-2,2-dimethylpropanoic acid]
60%	–	≤ 1 µM	–	Cc1onc(-c2ccccc2)c1COc1c(F)cc(C2CC2C(=O)O)cc1F (centres unmarked) [Example 16, 2-(3,5-difluoro-4-((5-methyl-3-phenylisoxazol-4-yl)methoxy)phenyl)cyclopropanecarboxylic acid]
67%	–	–	> 10 µM	CCc1ccc(-n2nc(C)cc2COc2ccc3c(c2)CCCC3CC(=O)O)cc1 (centres unmarked) [Example 123, 2-(6-((1-(4-ethylphenyl)-3-methyl-1H-pyrazol-5-yl)methoxy)-1,2,3,4-tetrahydronaphthalen-1-yl)acetic acid]
9%	–	–	> 10 µM	Cc1cc(COc2c(F)cc(CC(C)C(=O)O)cc2F)n(-c2ccc(C(N)=O)cc2)n1 (centres unmarked) [Example 79, 3-(4-((1-(4-carbamoylphenyl)-3-methyl-1H-pyrazol-5-yl)methoxy)-3,5-difluorophenyl)-2-methylpropanoic acid]
62%	–	≤ 1 µM	–	Cc1cc(COc2c(F)cc(CCC(=O)O)cc2F)n(-c2ccccc2)n1 [Example 46, 3-(3,5-difluoro-4-((3-methyl-1-phenyl-1H-pyrazol-5-yl)methoxy)phenyl)propanoic acid]
94%	–	≤ 1 µM	–	Cc1cc(COc2ccc3c(c2)CCC3CC(=O)O)n(-c2ccc3c(c2)CCC3)n1 (centres unmarked) [Example 120, 2-(5-((1-(2,3-dihydro-1H-inden-5-yl)-3-methyl-1H-pyrazol-5-yl)methoxy)-2,3-dihydro-1H-inden-1-yl)acetic acid]
85%	–	≤ 1 µM	–	O=C(O)CCc1cc(F)c(OCc2snnc2-c2ccc(F)cc2)c(F)c1 [Example 31, 3-(3,5-difluoro-4-((4-(4-fluorophenyl)-1,2,3-thiadiazol-5-yl)methoxy)phenyl)propanoic acid]
71%	–	≤ 1 µM	–	O=C(O)CCc1cc(F)c(OCc2cc(C(F)(F)F)nn2-c2ccc(Cl)cc2)c(F)c1 [Example 56, 3-(4-((1-(4-chlorophenyl)-3-(trifluoromethyl)-1H-pyrazol-5-yl)methoxy)-3,5-difluorophenyl)propanoic acid]
85%	1 to 10 µM	–	–	O=C(O)CSc1ccc(OCc2snnc2-c2ccccc2)cc1 [Example 29, 2-(4-((4-phenyl-1,2,3-thiadiazol-5-yl)methoxy)phenylthio)acetic acid]
111%	–	≤ 1 µM	–	CC(Cc1cc(F)c(OCc2c(C(F)(F)F)nn(C)c2Oc2ccccc2)c(F)c1)C(=O)O (centres unmarked) [Example 114, 3-(3,5-Difluoro-4-((1-methyl-5-phenoxy-3-(trifluoromethyl)-1H-pyrazol-4-yl)methoxy)phenyl)-2-methylpropanoic acid]
106%	–	≤ 1 µM	–	Cc1cc(COc2c(F)cc(CC(C)C(=O)O)cc2F)n(-c2ccc(C)c(C)c2)n1 (centres unmarked) [Example 87, 3-(4-((1-(3,4-dimethylphenyl)-3-methyl-1H-pyrazol-5-yl)methoxy)-3,5-difluorophenyl)-2-methylpropanoic acid]
